Measurements reported in patent publication US5493027A, “Anticonvulsive agents and uses thereof” (priority 1993, dated 1996).
“Also recorded” adds a separate entry of the source. Where two headings read alike, the source gives them in different places.

Columns and labels:
[1] = test system: pentylenetetrazole (Metrazol) induced seizures; experiment: Subcutaneous pentylenetetrazole (Metrazol) seizure threshold test (Met) in mice; assay type: in vivo, male Carworth Farms number-1 mice; conditions: for Sc MET: mice i.p.; for minimal effective dose: Mus musculus, ip
Procedure: (§1) Compounds were screened for anticonvulsant activity in male Carworth Farms number-1 mice. Test solutions of all compounds were prepared in 30% polyethylene glycol 400, and animals were dosed intraperitoneally at either 30 minutes or 4 hours prior to testing. Testing was conducted on four mice at each of three dose levels (30, 100, and 300 mg/kg).
(§2) In the subcutaneous pentylenetetrazole (Metrazol) seizure threshold test(met), 85 mg/kg pentylenetetrazole was administered as a 0.5% solution in the posterior midline. Protection in this test was defined as a failure to observe a single episode of clonic spasms of at least 5 s duration during the 30 minute period following administration of the convulsive agent.
as §1, with “Biological testing--Compounds” for “Compounds”, “number-one” for “number-1”, “min” for “minutes”, “h” for “hours”
as §2, with “test (Met),” for “test(met),”, “min” for “minute”

[2] = test system: maximal electroshock seizures (MES); experiment: animal or person; assay type: in vivo, male Carworth Farms number-1 mice; conditions: mice i.p.
Procedure: as §1
(§3) Maximal electroshock seizures (MES) were elicited with a 60 cycle alternatiing current of 50-mA intensity (five to seven times that necessary to evoke minimal electroshock threshold seizures). Current was delivered via corneal electrodes for 0.2 s. A drop of 0.9% saline was instilled in the eye prior to application of electrodes. Abolition of the hindlimb tonic extension component of the seizure was defined as protection in the MES test.
as §1, with “Biological testing--Compounds” for “Compounds”, “number-one” for “number-1”, “min” for “minutes”, “h” for “hours”
as §3, with “alternating” for “alternatiing”

[3] = test system: seizures induced by electroshock and pentylenetetrazole; experiment: Anticonvulsant testing, overall (MES and Met); assay type: in vivo, male Carworth Farms number-1 mice; conditions: for CLASS: Phase I Identification: mice, i.p., classes not defined in the patent
Procedure: as §1, §3, §2
as §1, with “Biological testing--Compounds” for “Compounds”, “number-one” for “number-1”, “min” for “minutes”, “h” for “hours”
as §3, with “alternating” for “alternatiing”
as §2, with “test (Met),” for “test(met),”, “min” for “minute”

[4] = molecular target: T1, strychnine-insensitive glycine binding site of the NMDA receptor (Rattus norvegicus, UniProt P35439); experiment: Inhibition of [3H]glycine specific binding (strychnine-insensitive) in rat cerebral cortex membranes; conditions: 10 uM compound
T1 construct: Membranes were prepared from rat cerebral cortex; from tissue; host or cells: rat cerebral cortex, "buffy coat" membranes
Procedure: Binding Studies--Inhibition of [^3 H]glycine specific binding was assayed using [^3 H]glycine (43 Ci/mmol) obtained from DuPont-New England Nuclear. […] Membranes were prepared from rat cerebral cortex and assays were conducted in Na-free 50 mM HEPES (Sigma) at pH 7.4. Membranes were incubated in a final volume of 1 ml with 20 nM [^3 H]glycine and a 10 uM concentration of the test compound. Although experience has shown that [^3 H]glycine binding in this preparation is strychnine insensitive, 10 uM strychnine was added to the assay mixtures to eliminate the possibility that any effects studied could be mediated through a strychnine-sensitive process. Incubation was continued for 20 min at 4° C. Non-specific binding was determined in the presence of 1 mM glycine and subtracted. All conditions were tested in triplicate in 3 different assays. Binding was terminated using a Brandel M-24C cell harvester employing rapid filtration through GF/C glass fiber filters pre-soaked in 1% (V/V) polyethylenimine. Filters were washed twice with 5 ml buffer cooled to 4° C. Radioactivity bound to the filters was determined with a Beckman LS-500OTD liquid scintillation counter.

[5] = Rotorod test for neurological deficit (TOX) in mice; assay type: in vivo, male Carworth Farms number-1 mice; conditions: mouse, in vivo, ip
Procedure: as §1
(§4) Animals were also tested for neurological deficit using the rotorod. After treatment, the animal was placed on a 1 inch diameter knurled plastic rod rotating at 6 rpm. Neurologic deficit was defined as the failure of the animal to remain on the rod for 1 minute.
as §1, with “Biological testing--Compounds” for “Compounds”, “number-one” for “number-1”, “min” for “minutes”, “h” for “hours”
(§5) Animals were also tested for neurological deficit using the rotorod. After treatment, the animal was placed on a 1 inch diameter knurled plastic rod rotating at 6 rpm. Neurologic deficit was defined as the failure of the animal to remain on the rod for 1 min.

[6] = test system: neurological deficit (rotorod); experiment: as above; assay type: in vivo, male Carworth Farms number-1 mice
Procedure: as §1, §4
as §1, with “Biological testing--Compounds” for “Compounds”, “number-one” for “number-1”, “min” for “minutes”, “h” for “hours”
as §5

[7] = Table 7, value without parentheses = effective dose, read-out: Effective Intraperitoneal Dose, Met
[8] = mice, intraperitoneal, read-out: dose active in Met test

SMILES: CNc1cc(C(=O)OC)nc2cc(Cl)cc(Cl)c12 [4-methylamino-5,7-dichloro quinoline 2-carboxylate methyl ester]
- Sc MET ([1]; 30 minutes, 30 mg/kg): 0/1
- Sc MET ([1]; 30 minutes, 100 mg/kg): 0/1
- Sc MET ([1]; 30 minutes, 300 mg/kg): 0/1
- Sc MET ([1]; 4 hours, 30 mg/kg): 0/1
- Sc MET ([1]; 4 hours, 100 mg/kg): 0/1
- Sc MET ([1]; 4 hours, 300 mg/kg): 0/1
- MES ([2]; 30 minutes, 30 mg/kg): 0/1
- MES ([2]; 30 minutes, 100 mg/kg): 0/3
- MES ([2]; 30 minutes, 300 mg/kg): 0/1
- MES ([2]; 4 hours, 30 mg/kg): 0/1
- MES ([2]; 4 hours, 100 mg/kg): 0/3
- MES ([2]; 4 hours, 300 mg/kg): 0/1
- CLASS [3]: 3
- anticonvulsant activity (words) ([3]; mice, intraperitoneal): inactive
- anticonvulsant activity (words) ([3]; mice, intraperitoneal, listed as 4-methylamino-5,7-dichloro quinoline 2-carboxylate methyl ester): lack of anticonvulsant activity
- anticonvulsant activity (words) ([3]; mice, intraperitoneal, listed as 5,7-di-Cl-4-methylamino-2-methyl ester): inactive in anticonvulsant testing

SMILES: CCOC(=O)c1cc(O)c2c(Cl)cc(Cl)cc2n1 [5,7 0-di-Cl-2-ethyl ester, 5,7-dichloro-kynurenate ethyl ester]
- anticonvulsant activity (words) ([3]; mice, intraperitoneal): inactive

SMILES: CCOC(=O)c1cc2cc(O)ccc2[nH]1 [5-hydroxyl-2-ethyl ester]
- [3H]glycine binding inhibition [4]: binding activity
- anticonvulsant activity (words) ([3]; mice, intraperitoneal): no CNS effects

SMILES: CCOC(=O)c1cc(O)c2ccc(Cl)cc2n1 [7-Cl-kyn-2-ethyl ester]
- minimal effective dose [1, 7]: 300 mg/kg
- minimal effective dose [1, 8]: 300 mg/kg
- NOAEL [5]: 300 mg/kg

SMILES: COC(=O)c1cc(N)c2c(Cl)cc(Cl)cc2n1 [4-amino-5,7-dichloro-2-quinoline carboxylate methyl ester]
- Sc MET ([1]; 30 minutes, 30 mg/kg): 0/1
- Sc MET ([1]; 30 minutes, 100 mg/kg): 1/1
- Sc MET ([1]; 30 minutes, 300 mg/kg): 0/1
- Sc MET ([1]; 4 hours, 30 mg/kg): 0/1
- Sc MET ([1]; 4 hours, 100 mg/kg): 0/1
- Sc MET ([1]; 4 hours, 300 mg/kg): 0/1
- MES ([2]; 30 minutes, 30 mg/kg): 0/1
- MES ([2]; 30 minutes, 100 mg/kg): 0/3
- MES ([2]; 30 minutes, 300 mg/kg): 0/1
- MES ([2]; 4 hours, 30 mg/kg): 0/1
- MES ([2]; 4 hours, 100 mg/kg): 1/3
- MES ([2]; 4 hours, 300 mg/kg): 1/1
- CLASS [3]: 1

SMILES: Cc1c(Cl)ccc2c(O)cc(C(=O)O)nc12 [7-Cl-8-methyl-kyn-2-COOH]
- minimal effective dose [1, 7]: 300 mg/kg
- minimal effective dose [1, 8]: 300 mg/kg
- NOAEL [5]: 300 mg/kg

SMILES: O=C(O)c1cccc(C(=O)O)n1 [2,6-pyridine dicarboxylic acid, pyridine-2,6-dicarboxylic acid]
- (Maximum Ineffective) Intraperitoneal Dose, Met ([1]; Table 7, value in parentheses = maximum ineffective dose): 300 mg/kg
- [3H]glycine binding inhibition [4]: no glycine displacement; also recorded: did neither
- Effective Intraperitoneal Dose, Rotorod ([6]; Table 7, value without parentheses = effective dose (neurologic deficit)): 300 mg/kg
- crossing of the blood-brain barrier ([6]; evidenced by the rotorod test): did cross the blood-brain barrier
- dose causing neurological deficit on rotorod ([6]; mice, intraperitoneal): 300 mg/kg
- anticonvulsant activity (words) ([3]; mice, intraperitoneal): did neither

SMILES: CCOC(=O)c1cccc(C(=O)OCC)n1 [2,6-pyridine-di-(ethyl carboxylate), 2,6-pyridine-di(ethyl carboxylate)]
- minimal effective dose [1, 7]: 100 mg/kg
- minimal effective dose [1, 8]: 100 mg/kg
- [3H]glycine binding inhibition [4]: potent [^3 H]glycine displacement
- [3H]glycine binding inhibition ([4]; listed as diethyl ester of pyridine-2,6-dicarboxylic acid): inhibited glycine binding
- Effective Intraperitoneal Dose, Rotorod ([6]; mouse, in vivo, ip): 300 mg/kg
- dose causing neurological deficit on rotorod ([6]; mouse, in vivo, ip): 300 mg/kg
- minimal effective dose ([3]; Mus musculus, ip, mice, intraperitoneal, read-out: dose level with anticonvulsant activity (test not given)): 100 mg/kg
- anticonvulsant activity (words) ([3]; mice, intraperitoneal): had anticonvulsant activity
